Source: patent US9096559B2, “4-carboxybenzylamino derivatives as histone deacetylase inhibitors” (Merck Sharp & Dohme Corp., priority 2007, dated 2015)

Target: histone deacetylase, subtype 1 (HDAC1) (Homo sapiens (Human), UniProt Q13547)
Experiment: HDAC1-Flag in vitro deacetylation assay
Assay type: biochemical
Conditions: IP = inflection point; read-out: HDAC1 IP (inflection point)
Protocol: Novel compounds were tested for their ability to inhibit histone deacetylase, subtype 1 (HDAC1) using an in vitro deacetylation assay. The enzyme source for this assay was an epitope-tagged human HDAC1 complex immuno-purified from stably expressing mammalian cells. The substrate consisted of a commercial product containing an acetylated lysine side chain (BIOMOL Research Laboratories, Inc., Plymouth Meeting, Pa.). Upon deacetylation of the substrate by incubation with the purified HDAC1 complex, a fluorophore is produced that is directly proportional to the level of deacetylation.

Chain of histone deacetylase, subtype 1 (HDAC1) (Q13547 whole entry): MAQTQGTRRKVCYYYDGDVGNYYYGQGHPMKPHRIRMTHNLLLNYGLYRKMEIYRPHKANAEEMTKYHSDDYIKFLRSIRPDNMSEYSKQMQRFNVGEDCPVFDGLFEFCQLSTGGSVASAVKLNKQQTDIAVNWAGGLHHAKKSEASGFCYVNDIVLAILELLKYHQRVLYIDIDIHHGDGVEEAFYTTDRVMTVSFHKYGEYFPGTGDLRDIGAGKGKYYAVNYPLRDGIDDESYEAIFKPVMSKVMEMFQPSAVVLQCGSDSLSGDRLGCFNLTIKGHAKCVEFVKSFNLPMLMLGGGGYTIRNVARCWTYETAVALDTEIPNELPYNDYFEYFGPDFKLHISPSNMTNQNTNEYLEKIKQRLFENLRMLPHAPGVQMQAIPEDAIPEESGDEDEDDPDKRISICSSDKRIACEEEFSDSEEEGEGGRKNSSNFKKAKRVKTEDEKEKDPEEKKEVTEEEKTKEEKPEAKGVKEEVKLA

Compound	IC50 [nM]
NCc1ccc(C(=O)Nc2cc(-c3ccccc3)ccc2O)cc1 [Example 8, 4-(aminomethyl)-N-(4-hydroxybiphenyl-3-yl)benzamide]	28
CC(C)CNCc1ccc(C(=O)Nc2cc(-c3ccccc3)ccc2O)cc1 [Example 73, N-(4-hydroxy-3-biphenylyl)-4-[(isobutylamino)methyl]benzamide]	110
Cc1nc(-c2ccccc2)sc1CNCc1ccc(C(=O)Nc2cc(-c3ccccc3)ccc2O)cc1 [Example 74, N-(4-hydroxy-3-biphenylyl)-4-({[(4-methyl-2-phenyl-1,3-thiazol-5-yl)methyl]amino}methyl)benzamide]	690
O=C(Nc1cc(-c2ccccc2)ccc1O)c1ccc(CNC2CC2)cc1 [Example 75, 4-[(cyclopropylamino)methyl]-N-(4-hydroxy-3-biphenylyl)benzamide]	76
O=C(Nc1cc(-c2ccccc2)ccc1O)c1ccc(CNc2ccccc2)cc1 [Example 76, 4-(anilinomethyl)-N-(4-hydroxy-3-biphenylyl)benzamide]	89
O=C(Nc1cc(-c2ccccc2)ccc1O)c1ccc(CNC2CCCC2)cc1 [Example 77, 4-[(cyclopentylamino)methyl]-N-(4-hydroxy-3-biphenylyl)benzamide]	150
O=C(Nc1cc(-c2ccccc2)ccc1O)c1ccc(CNCC2CC2)cc1 [Example 78, 4-{[(cyclopropylmethyl)amino]methyl}-N-(4-hydroxy-3-biphenylyl)benzamide]	72
CN(C)CCNCc1ccc(C(=O)Nc2cc(-c3ccccc3)ccc2O)cc1 [Example 80, 4-({[2-(dimethylamino)ethyl]amino}methyl)-N-(4-hydroxy-3-biphenylyl)benzamide]	120
O=C(Nc1cc(-c2ccccc2)ccc1O)c1ccc(CNCCCN2CCCC2)cc1 [Example 82, N-(4-hydroxy-3-biphenylyl)-4-({[3-(1-pyrrolidinyl)propyl]amino}methyl)benzamide]	91
O=C(Nc1cc(-c2ccccc2)ccc1O)c1ccc(CN2CCNCC2)cc1 [Example 83, N-(4-hydroxy-3-biphenylyl)-4-(1-piperazinylmethyl)benzamide]	65
O=C(Nc1cc(-c2ccccc2)ccc1O)c1ccc(CN2CCOCC2)cc1 [Example 85, N-(4-hydroxy-3-biphenylyl)-4-(4-morpholinylmethyl)benzamide]	48
CC(C)OCCCNCc1ccc(C(=O)Nc2cc(-c3ccccc3)ccc2O)cc1 [Example 86, N-(4-hydroxy-3-biphenylyl)-4-{[(3-isopropoxypropyl)amino]methyl}benzamide]	95
CC1CCN(Cc2ccc(C(=O)Nc3cc(-c4ccccc4)ccc3O)cc2)CC1 [Example 87, N-(4-hydroxy-3-biphenylyl)-4-[(4-methyl-1-piperidinyl)methyl]benzamide]	220
CN(Cc1ccccc1)Cc1ccc(C(=O)Nc2cc(-c3ccccc3)ccc2O)cc1 [Example 88, 4-{[benzyl(methyl)amino]methyl}-N-(4-hydroxy-3-biphenylyl)benzamide]	350
O=C(Nc1cc(-c2ccccc2)ccc1O)c1ccc(CN2CCc3ccccc3C2)cc1 [Example 90, 4-(3,4-dihydro-2(1H)-isoquinolinylmethyl)-N-(4-hydroxy-3-biphenylyl)benzamide]	250
CC(C)NCCNCc1ccc(C(=O)Nc2cc(-c3ccccc3)ccc2O)cc1 [Example 91, N-(4-hydroxy-3-biphenylyl)-4-({[2-(isopropylamino)ethyl]amino}methyl)benzamide]	44
CC(C)CCNCc1ccc(C(=O)Nc2cc(-c3ccccc3)ccc2O)cc1 [Example 92, N-(4-hydroxy-3-biphenylyl)-4-{[(3-methylbutyl)amino]methyl}benzamide]	100
CN(CCc1ccccc1)Cc1ccc(C(=O)Nc2cc(-c3ccccc3)ccc2O)cc1 [Example 93, N-(4-hydroxy-3-biphenylyl)-4-{[methyl(2-phenylethyl)amino]methyl}benzamide]	340
CCN(C)Cc1ccc(C(=O)Nc2cc(-c3ccccc3)ccc2O)cc1 [Example 94, 4-{[ethyl(methyl)amino]methyl}-N-(4-hydroxy-3-biphenylyl)benzamide]	31
O=C(Nc1cc(-c2ccccc2)ccc1O)c1ccc(CN2Cc3ccccc3C2)cc1 [Example 95, 4-(1,3-dihydro-2H-isoindol-2-ylmethyl)-N-(4-hydroxy-3-biphenylyl)benzamide]	27000
O=C(Nc1cc(-c2ccccc2)ccc1O)c1ccc(CNCCNc2ccccc2)cc1 [Example 97, 4-{[(2-anilinoethyl)amino]methyl}-N-(4-hydroxy-3-biphenylyl)benzamide]	260
CNCCCN(C)Cc1ccc(C(=O)Nc2cc(-c3ccccc3)ccc2O)cc1 [Example 99, N-(4-hydroxy-3-biphenylyl)-4-({methyl[3-(methylamino)propyl]amino}methyl)benzamide]	18
CN1CCN(Cc2ccc(C(=O)Nc3cc(-c4ccccc4)ccc3O)cc2)CC1 [Example 100, N-(4-hydroxy-3-biphenylyl)-4-[(4-methyl-1-piperazinyl)methyl]benzamide]	2400
CNCCN(C)Cc1ccc(C(=O)Nc2cc(-c3ccccc3)ccc2O)cc1 [Example 101, N-(4-hydroxy-3-biphenylyl)-4-({methyl[2-(methylamino)ethyl]amino}methyl)benzamide]	35
CCN1CCC(CNCc2ccc(C(=O)Nc3cc(-c4ccccc4)ccc3O)cc2)CC1 [Example 102, 4-({[(1-ethyl-4-piperidinyl)methyl]amino}methyl)-N-(4-hydroxy-3-biphenylyl)benzamide]	65
CN(C)C1CCN(Cc2ccc(C(=O)Nc3cc(-c4ccccc4)ccc3O)cc2)C1 (stereo not shown) [Example 106, 4-{[3-(dimethylamino)-1-pyrrolidinyl]methyl}-N-(4-hydroxy-3-biphenylyl)benzamide]	50
NCCNCc1ccc(C(=O)Nc2cc(-c3ccccc3)ccc2O)cc1 [Example 107, 4-{[(2-aminoethyl)amino]methyl}-N-(4-hydroxy-3-biphenylyl)benzamide]	72
O=C(Nc1cc(-c2ccccc2)ccc1O)c1ccc(CNC2Cc3ccccc3C2)cc1 [Example 108, 4-[(2,3-dihydro-1H-inden-2-ylamino)methyl]-N-(4-hydroxy-3-biphenylyl)benzamide]	160

Now from value to molecule:

IC50 [nM]	Compound
81	COC(=O)c1ccc(-c2ccc(N)c(NC(=O)c3ccc(CNC(=O)OCc4cccnc4)cc3)c2)cc1 [Example 2, methyl 4′-amino-3′-[({4-[({[(pyridin-3-ylmethyl)oxy]carbonyl}amino)methyl]phenyl}carbonyl)amino]biphenyl-4-carboxylate]
17	Nc1ccc(-c2cccnc2)cc1NC(=O)c1ccc(CNC(=O)OCc2cccnc2)cc1 [Example 3, pyridin-3-ylmethyl[(4-{[(2-amino-5-pyridin-3-ylphenyl)amino]carbonyl}phenyl)methyl]carbamate]
20	O=C(NCc1ccc(C(=O)Nc2cc(-c3ccccc3)ccc2O)cc1)OCc1cccnc1 [Example 5, pyridin-3-ylmethyl[(4-{[(4-hydroxybiphenyl-3-yl)amino]carbonyl}phenyl)methyl]carbamate]
70	CC(C)(C)OC(=O)NCc1ccc(C(=O)Nc2cc(-c3ccccc3)ccc2O)cc1 [Example 7, 1,1-dimethylethyl[(4-{[(4-hydroxybiphenyl-3-yl)amino]carbonyl}phenyl)methyl]carbamate]
970	O=C(Nc1cc(-c2ccccc2)ccc1O)c1ccc(CNCCc2ccccc2)cc1 [Example 71, N-(4-hydroxy-3-biphenylyl)-4-{[(2-phenylethyl)amino]methyl}benzamide]
1800	O=C(Nc1cc(-c2ccccc2)ccc1O)c1ccc(CNCCc2ccc(Br)cc2)cc1 [Example 72, 4-({[2-(4-bromophenyl)ethyl]amino}methyl)-N-(4-hydroxy-3-biphenylyl)benzamide]
32	O=C(Nc1cc(-c2ccccc2)ccc1O)c1ccc(CNCc2cccnc2)cc1 [Example 81, N-(4-hydroxy-3-biphenylyl)-4-{[(3-pyridinylmethyl)amino]methyl}benzamide]
9.9	O=C(Nc1cc(-c2ccccc2)ccc1O)c1ccc(CNc2ccncc2)cc1 [Example 84, N-(4-hydroxy-3-biphenylyl)-4-[(4-pyridinylamino)methyl]benzamide]
450	O=C(Nc1cc(-c2ccccc2)ccc1O)c1ccc(CNCCCc2ccccc2)cc1 [Example 89, N-(4-hydroxy-3-biphenylyl)-4-{[(3-phenylpropyl)amino]methyl}benzamide]
360	O=C(Nc1cc(-c2ccccc2)ccc1O)c1ccc(CNCCOc2ccccc2)cc1 [Example 96, N-(4-hydroxy-3-biphenylyl)-4-{[(2-phenoxyethyl)amino]methyl}benzamide]
2100	O=C(Nc1cc(-c2ccccc2)ccc1O)c1ccc(CNCc2cccs2)cc1 [Example 98, N-(4-hydroxy-3-biphenylyl)-4-{[(2-thienylmethyl)amino]methyl}benzamide]
13	CN(Cc1ccc(C(=O)Nc2cc(-c3ccccc3)ccc2O)cc1)c1ccncc1 [Example 103, N-(4-hydroxy-3-biphenylyl)-4-{[methyl(4-pyridinyl)amino]methyl}benzamide]
33	CN(CCc1ccncc1)Cc1ccc(C(=O)Nc2cc(-c3ccccc3)ccc2O)cc1 [Example 104, N-(4-hydroxy-3-biphenylyl)-4-({methyl[2-(4-pyridinyl)ethyl]amino}methyl)benzamide]
2500	O=C(Nc1cc(-c2ccccc2)ccc1O)c1ccc(CNCCc2cccnc2)cc1 [Example 105, N-(4-hydroxy-3-biphenylyl)-4-({[2-(3-pyridinyl)ethyl]amino}methyl)benzamide]
100	O=C(Nc1cc(-c2ccccc2)ccc1O)c1ccc(CNCCCc2ccncc2)cc1 [Example 109, N-(4-hydroxy-3-biphenylyl)-4-({[3-(4-pyridinyl)propyl]amino}methyl)benzamide]
